# Patent US20260022142A1, “MACROCYCLIC IMMUNOMODULATORS” (Bristol-Myers Squibb Company, priority 2022, published 2026)
# Bridge positions count the residues as written; N and C are the ends. Square brackets hold non-standard residues; d marks the D form. Peptide text beside a SMILES is read from it. * marks the point of attachment. ξ: configuration not given here. Bip = N[C@@H](Cc1ccc(-c2ccccc2)cc1)C(=O)O; Phe(3-Me) = Cc1cccc(C[C@H](N)C(=O)O)c1; Val(3-OH) = CC(C)(O)[C@H](N)C(=O)O; Cha = N[C@@H](CC1CCCCC1)C(=O)O; Thr(3ξ) = CC(O)[C@H](N)C(=O)O; 12Ado = NCCCCCCCCCCCC(=O)O; Carboxymethyl = O=C(O)C*; Orn = NCCC[C@H](N)C(=O)O; Aun = NCCCCCCCCCCC(=O)O; Dab = NCC[C@H](N)C(=O)O
# Target: T1, PD-1/PD-L1 interaction (PE-labeled human PD-L1-Ig binding to Jurkat cell line over-expressing human PD-1) (Homo sapiens, UniProt Q15116)
# T1 construct: expressed in transfected cells; host or cells: Jurkat
# T1 sequence (Q15116 25-288): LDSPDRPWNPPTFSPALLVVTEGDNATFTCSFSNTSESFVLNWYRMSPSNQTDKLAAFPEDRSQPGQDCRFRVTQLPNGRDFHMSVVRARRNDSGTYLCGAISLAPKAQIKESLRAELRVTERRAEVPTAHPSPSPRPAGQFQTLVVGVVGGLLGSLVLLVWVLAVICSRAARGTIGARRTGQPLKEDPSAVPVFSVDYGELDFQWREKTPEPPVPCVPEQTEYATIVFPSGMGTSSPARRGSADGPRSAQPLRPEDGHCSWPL
# Experiment: Jurkat-PD-1 Cell Binding High-Content Screening Assay (CBA)
# Format: cell-based
# Settings: Jurkat cell line over-expressing human PD-1; PE-labeled PD-L1-Ig 20 nM final; read-out: Jurkat hPD1-PDL1 IC50
# How it was run: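 Jurkat cells stably over-expressing human PD-1 were seeded in DMEM with 10% fetal calf serum and pre-incubated with compound for 2 h at 37° C. PE-labeled human PD-L1-Ig was then added at 20 nM final for 1 hour, after which cells were fixed with paraformaldehyde, Hoechst-stained and imaged by high-content microscopy.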
row,IC50 [nM],SMILES
1,21.5,Cc1cccc(C[C@@H]2NC(=O)[C@H](CC(=O)O)NC(=O)[C@H](Cc3ccc(OCC(=O)O)cc3)NC(=O)[C@H](CCN)NC(=O)CSC[C@@H](C(=O)N[C@@H](CCN)C(=O)N[C@@H](CO)C(=O)NCCCCCCCCCCCC(=O)O)NC(=O)[C@H](CCCN)NC(=O)[C@H](C(C)(C)O)NC(=O)[C@H](CC3CCCCC3)NC(=O)[C@H](CCN)NC(=O)[C@@H](CC(C)C)NC(=O)[C@H](CCCN)NC(=O)[C@H](Cc3ccc(OCC(=O)O)cc3)NC(=O)[C@H](Cc3ccc(-c4ccccc4)cc3)NC(=O)[C@H](Cc3ccc(OCC(=O)O)cc3)NC2=O)c1 [Compound 3624] ({CH2CO}-[Dab]Y(Carboxymethyl)D[Phe(3-Me)]Y(Carboxymethyl)[Bip]Y(Carboxymethyl)[Orn][dL][Dab][Cha][Val(3-OH)][Orn]C[Dab]S[12Ado]-OH; thioether N-14)
2,23.3,Cc1cccc(C[C@@H]2NC(=O)[C@H](CC(=O)O)NC(=O)[C@H](Cc3ccc(OCC(=O)O)cc3)NC(=O)[C@H](CCN)NC(=O)CSC[C@@H](C(=O)N[C@@H](CCN)C(=O)N[C@@H](CO)C(=O)NCCCCCCCCCCCC(=O)O)NC(=O)[C@H](CO)NC(=O)[C@H](C(C)(C)O)NC(=O)[C@H](CC3CCCCC3)NC(=O)[C@H](CCN)NC(=O)[C@@H](CC(C)C)NC(=O)[C@H](CCCN)NC(=O)[C@H](Cc3ccc(OCC(=O)O)cc3)NC(=O)[C@H](Cc3ccc(-c4ccccc4)cc3)NC(=O)[C@H](Cc3ccc(OCC(=O)O)cc3)NC2=O)c1 [Compound 3625] ({CH2CO}-[Dab]Y(Carboxymethyl)D[Phe(3-Me)]Y(Carboxymethyl)[Bip]Y(Carboxymethyl)[Orn][dL][Dab][Cha][Val(3-OH)]SC[Dab]S[12Ado]-OH; thioether N-14)
3,7.3,Cc1cccc(C[C@@H]2NC(=O)[C@H](CC(=O)O)NC(=O)[C@H](Cc3ccc(OCC(=O)O)cc3)NC(=O)[C@H](CCN)NC(=O)CSC[C@@H](C(=O)N[C@@H](CCN)C(=O)NCCCCCCCCCCCC(=O)O)NC(=O)[C@H](CCCN)NC(=O)[C@H](C(C)(C)O)NC(=O)[C@H](CC3CCCCC3)NC(=O)[C@H](CCN)NC(=O)[C@@H](CC(C)C)NC(=O)[C@H](CCCN)NC(=O)[C@H](Cc3ccc(OCC(=O)O)cc3)NC(=O)[C@H](Cc3ccc(-c4ccccc4)cc3)NC(=O)[C@H](Cc3ccc(OCC(=O)O)cc3)NC2=O)c1 [Compound 3626] ({CH2CO}-[Dab]Y(Carboxymethyl)D[Phe(3-Me)]Y(Carboxymethyl)[Bip]Y(Carboxymethyl)[Orn][dL][Dab][Cha][Val(3-OH)][Orn]C[Dab][12Ado]-OH; thioether N-14)
4,23,Cc1cccc(C[C@@H]2NC(=O)[C@H](CC(=O)O)NC(=O)[C@H](Cc3ccc(OCC(=O)O)cc3)NC(=O)[C@H](Cc3ccccc3)NC(=O)CSC[C@@H](C(=O)N[C@@H](CCN)C(=O)NCCCCCCCCCCC(=O)O)NC(=O)[C@H](CO)NC(=O)[C@H](C(C)(C)O)NC(=O)[C@H](CC3CCCCC3)NC(=O)[C@H](CCN)NC(=O)[C@@H](CC(C)C)NC(=O)[C@H](CCCN)NC(=O)[C@H](Cc3ccc(OCC(=O)O)cc3)NC(=O)[C@H](Cc3ccc(-c4ccccc4)cc3)NC(=O)[C@H](Cc3ccc(OCC(=O)O)cc3)NC2=O)c1 [Compound 3628] ({CH2CO}-FY(Carboxymethyl)D[Phe(3-Me)]Y(Carboxymethyl)[Bip]Y(Carboxymethyl)[Orn][dL][Dab][Cha][Val(3-OH)]SC[Dab][Aun]-OH; thioether N-14)
5,8.4,Cc1cccc(C[C@@H]2NC(=O)[C@H](CC(=O)O)NC(=O)[C@H](Cc3ccc(OCC(=O)O)cc3)NC(=O)[C@H](CCN)NC(=O)CSC[C@@H](C(=O)N[C@@H](CCN)C(=O)NCCCCCCCCCCC(=O)O)NC(=O)[C@H](CO)NC(=O)[C@H](C(C)(C)O)NC(=O)[C@H](CC3CCCCC3)NC(=O)[C@H](CCN)NC(=O)[C@@H](CC(C)C)NC(=O)[C@H](CCCN)NC(=O)[C@H](Cc3ccc(OCC(=O)O)cc3)NC(=O)[C@H](Cc3ccc(-c4ccccc4)cc3)NC(=O)[C@H](Cc3ccc(OCC(=O)O)cc3)NC2=O)c1 [Compound 3629] ({CH2CO}-[Dab]Y(Carboxymethyl)D[Phe(3-Me)]Y(Carboxymethyl)[Bip]Y(Carboxymethyl)[Orn][dL][Dab][Cha][Val(3-OH)]SC[Dab][Aun]-OH; thioether N-14)
6,6.7,Cc1cccc(C[C@@H]2NC(=O)[C@H](CC(=O)O)NC(=O)[C@H](Cc3ccc(OCC(=O)O)cc3)NC(=O)[C@H](CCN)NC(=O)CSC[C@@H](C(=O)N[C@@H](CCN)C(=O)NCCCCCCCCCCC(=O)O)NC(=O)[C@H](CO)NC(=O)[C@H](C(C)O)NC(=O)[C@H](CC3CCCCC3)NC(=O)[C@H](CCN)NC(=O)[C@@H](CC(C)C)NC(=O)[C@H](CCCN)NC(=O)[C@H](Cc3ccc(OCC(=O)O)cc3)NC(=O)[C@H](Cc3ccc(-c4ccccc4)cc3)NC(=O)[C@H](Cc3ccc(OCC(=O)O)cc3)NC2=O)c1 (stereo partly drawn) [Compound 3630] ({CH2CO}-[Dab]Y(Carboxymethyl)D[Phe(3-Me)]Y(Carboxymethyl)[Bip]Y(Carboxymethyl)[Orn][dL][Dab][Cha][Thr(3ξ)]SC[Dab][Aun]-OH; thioether N-14)
7,16,Cc1cccc(C[C@@H]2NC(=O)[C@H](CC(=O)O)NC(=O)[C@H](Cc3ccc(OCC(=O)O)cc3)NC(=O)[C@H](CCN)NC(=O)CSC[C@@H](C(=O)N[C@@H](CCN)C(=O)NCCCCCCCCCCC(=O)O)NC(=O)[C@H](CO)NC(=O)[C@H](CCCCN)NC(=O)[C@H](CC3CCCCC3)NC(=O)[C@H](CCN)NC(=O)[C@@H](CC(C)C)NC(=O)[C@H](CCCN)NC(=O)[C@H](Cc3ccc(OCC(=O)O)cc3)NC(=O)[C@H](Cc3ccc(-c4ccccc4)cc3)NC(=O)[C@H](Cc3ccc(OCC(=O)O)cc3)NC2=O)c1 [Compound 3631] ({CH2CO}-[Dab]Y(Carboxymethyl)D[Phe(3-Me)]Y(Carboxymethyl)[Bip]Y(Carboxymethyl)[Orn][dL][Dab][Cha]KSC[Dab][Aun]-OH; thioether N-14)

# The next lines start with the compound.
row,SMILES,IC50 [nM]
1,CC(=O)NCCCC[C@@H]1NC(=O)[C@H](Cc2ccc(-c3ccccc3)cc2)NC(=O)[C@H](Cc2ccc(O)cc2)NC(=O)[C@H](Cc2cccc(C)c2)NC(=O)[C@H](CC(=O)O)NC(=O)[C@H](Cc2ccc(OCC(=O)O)cc2)NC(=O)[C@H](CCN)NC(=O)CSC[C@@H](C(=O)N[C@@H](CCN)C(=O)N[C@@H](CO)C(=O)NCCCCCCCCCCCC(=O)O)NC(=O)[C@H](CCCN)NC(=O)[C@H](C(C)(C)O)NC(=O)[C@H](CC2CCCCC2)NC(=O)[C@H](CCN)NC(=O)[C@@H](CC(C)C)NC(=O)[C@H](CCCN)NC1=O [Compound 3620] ({CH2CO}-[Dab]Y(Carboxymethyl)D[Phe(3-Me)]Y[Bip]K(Ac)[Orn][dL][Dab][Cha][Val(3-OH)][Orn]C[Dab]S[12Ado]-OH; thioether N-14),37.2
2,CC(=O)NCCCC[C@@H]1NC(=O)[C@H](Cc2ccc(-c3ccccc3)cc2)NC(=O)[C@H](Cc2ccc(O)cc2)NC(=O)[C@H](Cc2cccc(C)c2)NC(=O)[C@H](CC(=O)O)NC(=O)[C@H](Cc2ccc(OCC(=O)O)cc2)NC(=O)[C@H](CCN)NC(=O)CSC[C@@H](C(=O)N[C@@H](CCN)C(=O)N[C@@H](CO)C(=O)NCCCCCCCCCCCC(=O)O)NC(=O)[C@H](CCC(=O)O)NC(=O)[C@H](C(C)(C)O)NC(=O)[C@H](CC2CCCCC2)NC(=O)[C@H](CCN)NC(=O)[C@@H](CC(C)C)NC(=O)[C@H](CCCN)NC1=O [Compound 3621] ({CH2CO}-[Dab]Y(Carboxymethyl)D[Phe(3-Me)]Y[Bip]K(Ac)[Orn][dL][Dab][Cha][Val(3-OH)]EC[Dab]S[12Ado]-OH; thioether N-14),24.3
3,CC(=O)NCCCC[C@@H]1NC(=O)[C@H](Cc2ccc(-c3ccccc3)cc2)NC(=O)[C@H](Cc2ccc(O)cc2)NC(=O)[C@H](Cc2cccc(C)c2)NC(=O)[C@H](CC(=O)O)NC(=O)[C@H](Cc2ccc(OCC(=O)O)cc2)NC(=O)[C@H](C(C)O)NC(=O)CSC[C@@H](C(=O)N[C@@H](CCN)C(=O)N[C@@H](CO)C(=O)NCCCCCCCCCCCC(=O)O)NC(=O)[C@H](CCCN)NC(=O)[C@H](C(C)(C)O)NC(=O)[C@H](CC2CCCCC2)NC(=O)[C@H](CCN)NC(=O)[C@@H](CC(C)C)NC(=O)[C@H](CCCN)NC1=O (stereo partly drawn) [Compound 3622] ({CH2CO}-[Thr(3ξ)]Y(Carboxymethyl)D[Phe(3-Me)]Y[Bip]K(Ac)[Orn][dL][Dab][Cha][Val(3-OH)][Orn]C[Dab]S[12Ado]-OH; thioether N-14),18.3
4,CC(=O)NCCCC[C@@H]1NC(=O)[C@H](Cc2ccc(-c3ccccc3)cc2)NC(=O)[C@H](Cc2ccc(O)cc2)NC(=O)[C@H](Cc2cccc(C)c2)NC(=O)[C@H](CC(=O)O)NC(=O)[C@H](Cc2ccc(OCC(=O)O)cc2)NC(=O)[C@H](CCN)NC(=O)CSC[C@@H](C(=O)N[C@@H](CCN)C(=O)N[C@@H](CO)C(=O)NCCCCCCCCCCCC(=O)O)NC(=O)[C@H](CCCN)NC(=O)[C@H](C(C)O)NC(=O)[C@H](CC2CCCCC2)NC(=O)[C@H](CCN)NC(=O)[C@@H](CC(C)C)NC(=O)[C@H](CCCN)NC1=O (stereo partly drawn) [Compound 3623] ({CH2CO}-[Dab]Y(Carboxymethyl)D[Phe(3-Me)]Y[Bip]K(Ac)[Orn][dL][Dab][Cha][Thr(3ξ)][Orn]C[Dab]S[12Ado]-OH; thioether N-14),62.3
5,CC(=O)NCCCC[C@@H]1NC(=O)[C@H](Cc2ccc(-c3ccccc3)cc2)NC(=O)[C@H](Cc2ccc(O)cc2)NC(=O)[C@H](Cc2cccc(C)c2)NC(=O)[C@H](CC(=O)O)NC(=O)[C@H](Cc2ccc(OCC(=O)O)cc2)NC(=O)[C@H](CCN)NC(=O)CSC[C@@H](C(=O)N[C@@H](CCN)C(=O)N[C@@H](CO)C(=O)NCCCCCCCCCCCC(=O)O)NC(=O)[C@H](CO)NC(=O)[C@H](CCCCN)NC(=O)[C@H](CC2CCCCC2)NC(=O)[C@H](CCN)NC(=O)[C@@H](CC(C)C)NC(=O)[C@H](CCCN)NC1=O [Compound 3627] ({CH2CO}-[Dab]Y(Carboxymethyl)D[Phe(3-Me)]Y[Bip]K(Ac)[Orn][dL][Dab][Cha]KSC[Dab]S[12Ado]-OH; thioether N-14),36.7
